This assay concerns Methicillin-resistente Staphylokokken. Put plainly: Minimal inhibitory concentration in the agar dilution test, 39 clinical isolates. Type of assay: cell-based. The protocol: Der überraschend gefundene synergistische Effekt einer Kombination von Decaplanin und Cefpirom konnte auch mit 39 klinischen Isolaten (Methicillin-resistente Staphylokokken) gezeigt werden, von denen die meisten eine ausgeprägte Resistenz gegenüber Cefpirom zeigten (MHK > 16 µg/ml). Dazu wurde die minimale Hemmkonzentration im Agarverdünnungstest von Cefpirom, Decaplanin und einer Mischung gleicher Anteile von Cefpirom und Decaplanin bestimmt. Wie Fig. 1 zeigt, ist die antibakterielle Aktivität der Mischung deutlich höher als die jeder Einzelkomponente. Aus Fig. 1 geht hervor, daß die als Beurteilungskriterium üblicherweise herangezogene minimale Hemmkonzentration, bei der 90 % der Stämme gehemmt werden (MHK90%), für die Mischung beider Komponenten mit 0,7 µg/ml am niedrigsten ist. (MHK90% für Decaplanin: 3,5 µg/ml, MHK90% für Cefpirom: 64 µg/ml).
(Agar dilution tests growth on a series of plates holding different concentrations.)

`CO/N=C(\C(=O)N[C@@H]1C(=O)N2C(C(=O)[O-])=C(C[n+]3cccc4c3CCC4)CS[C@H]12)c1csc(N)n1` [Cefpirom]: the MIC (read-out: MHK) was above 16 µg/mL. Also, the MIC90 (read-out: MHK90%) amounted to 64 µg/mL.
Consider `CNC(CC(C)C)C(=O)NC1C(=O)NC(CC(N)=O)C(=O)NC2C(=O)NC3C(=O)NC(C(=O)NC(C(=O)O)c4cc(O)cc(O)c4-c4cc3ccc4O)C(OC3CC(C)(N)C(O)C(C)O3)c3ccc(cc3)Oc3cc2cc(c3OC2OC(CO)C(O)C(O)C2OC2OC(C)C(O)C(O)C2O)Oc2ccc(cc2Cl)C1O` (stereo not drawn) [Decaplanin], for which the MHK90% (minimal inhibitory concentration at which 90 % of the 39 isolates are inhibited, from Fig. 1) is recorded as 3,5 µg/ml.

The values are drawn from patent publication EP0388510A1, “Pharmaceutical compositions and their use in the prophylaxis or the treatment of bacterial infectious diseases” (HOECHST AKTIENGESELLSCHAFT, priority 1989, dated 1990).
